Molecules are shown by their SMILES. Activity calls are given as the source filed them. The rule behind the calls is not given here.

The subject of experiment [1] is HT-22. As to the kind of experiment: Antioxidant activity against OGD/R induced oxidative stress in mouse HT-22 cells assessed as increase in SOD activity by absorbance based automatic microplate reader analysis. Format: functional, cell-based.
The subject of experiment [2] is BV-2. The experiment can be described thus: Anti-inflammatory activity against OGD/R and erastin induced ferroptosis in mouse BV-2 cells assessed as inhibition of IL-6 production preincubated for 6 hrs followed by OGD addition and measured after 1 hr by ELISA method. The class given is functional, cell-based. Particulars: dose 10-40 µM, time 7.0 hrs. On the technique in general: An ELISA detects its analyte on a solid surface through an enzyme-linked reagent.

Experiment [3] concerns Mus musculus. As to the kind of experiment: Neuroprotective activity against MCAO-R induced 12 hrs fasted male C57BL/6J mouse model assessed as decrease in S100 expression in CA3 by measuring decrease in fluorescence intensity administered once a day as ip dose for 7 days by immunofluorescence method. Format: functional, organism-based. The conditions noted are these: dose 10-50 mg/kg, time 7.0 day.

In experiment [4] the target is T1, Nuclear factor erythroid 2-related factor 2 (Mus musculus) (UniProt Q60795).
T1 sequence (whole entry): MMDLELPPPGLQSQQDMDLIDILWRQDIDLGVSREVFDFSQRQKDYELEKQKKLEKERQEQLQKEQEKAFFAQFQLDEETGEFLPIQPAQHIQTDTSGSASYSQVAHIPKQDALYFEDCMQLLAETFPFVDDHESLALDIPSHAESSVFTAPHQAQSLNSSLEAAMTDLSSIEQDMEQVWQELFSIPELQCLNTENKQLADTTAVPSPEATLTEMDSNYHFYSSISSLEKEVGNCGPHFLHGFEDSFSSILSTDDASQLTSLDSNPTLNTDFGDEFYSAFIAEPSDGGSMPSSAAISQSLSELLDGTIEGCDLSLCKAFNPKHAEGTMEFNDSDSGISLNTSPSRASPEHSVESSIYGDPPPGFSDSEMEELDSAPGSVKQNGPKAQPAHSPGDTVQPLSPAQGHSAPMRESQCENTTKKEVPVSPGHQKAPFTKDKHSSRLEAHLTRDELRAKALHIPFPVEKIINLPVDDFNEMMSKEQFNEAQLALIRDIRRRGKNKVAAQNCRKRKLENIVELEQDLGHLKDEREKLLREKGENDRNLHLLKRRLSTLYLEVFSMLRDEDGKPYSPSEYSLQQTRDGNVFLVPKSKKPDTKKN
The experiment can be described thus: Activation of Nrf2 in OGD/R induced mouse HT-22 cells assessed as induction of Nrf2 nuclear translocation at 1 to 10 uM by immunofluorescence analysis. The conditions noted are these: filed as activator, dose 1-10 µM. Format: cell-based.

Experiment [5] concerns BV-2. As to the kind of experiment: Anti-inflammatory activity against OGD/R and erastin induced ferroptosis in mouse BV-2 cells assessed as inhibition of IL-18 production preincubated for 6 hrs followed by OGD addition and measured after 1 hr by ELISA method. The class given is functional, cell-based. Particulars: dose 10-40 µM, time 7.0 hrs.
Experiment [6] concerns HT-22. As to the kind of experiment: Cytoprotective activity against OGD/R induced mouse HT-22 cells assessed as inhibition of intracellular LDH release at 10 uM in presence of ML385. Format: functional, cell-based. (In general: LDH in the medium is a marker of cell lysis.)
Experiment [7] concerns HT-22. As to the kind of experiment: Upregulation of HO-1 protein level in OGD/R induced mouse HT-22 cells at 1 to 10 uM by Western blot analysis. Format: functional, cell-based. Particulars: dose 1-10 µM.
Experiment [8] concerns Mus musculus. The experiment can be described thus: Neuroprotective activity against MCAO-R induced 12 hrs fasted male C57BL/6J mouse model assessed as increase in SOD activity in cerebral ischemic tissue at 10 to 50 mg/kg, ip administered once a day for 7 days. The class given is functional, organism-based. Particulars: dose 10-50 mg/kg, time 7.0 day.
Experiment [9] concerns Mus musculus. The experiment can be described thus: Neuroprotective activity against MCAO-R induced 12 hrs fasted male C57BL/6J mouse model assessed as improvement in brain tissue structure at 10 to 50 mg/kg, ip administered once a day for 7 days by H and E staining based analysis. The class given is functional, organism-based. The conditions noted are these: dose 10-50 mg/kg, time 7.0 day.

In experiment [10] the test system is HT-22. The experiment can be described thus: Anti-ferroptotic activity against OGD/R induced mouse HT-22 cells decrease in MDA level at 10 uM in presence of ML385. The class given is functional, cell-based.
In experiment [11] the test system is BV-2. The experiment can be described thus: Anti-inflammatory activity against OGD/R and erastin induced ferroptosis in mouse BV-2 cells assessed as inhibition of TNF-alpha production preincubated for 6 hrs followed by OGD addition and measured after 1 hr by ELISA method. The class given is functional, cell-based. Particulars: dose 10-40 µM, time 7.0 hrs.
Experiment [12] deals with HT-22. The experiment can be described thus: Induction of morphological changes in OGD/R induced mouse HT-22 cells assessed as attenuation of cell rounding by microscopic based analysis. Format: functional.
Experiment [13] deals with HT-22. The experiment can be described thus: Anti-ferroptotic activity against OGD/R induced mouse HT-22 cells increase in GSH level at 10 uM. The class given is functional, cell-based.
In experiment [14] the target is Phospholipid hydroperoxide glutathione peroxidase GPX4 (Mus musculus) (UniProt O70325). As to the kind of experiment: In vivo activation of Nrf2 pathway in MCAO-R induced 12 hrs fasted male C57BL/6J mouse model assessed as increase in GPX4 expression level at 10 to 50 mg/kg, ip by Western blot analysis. The class given is functional, organism-based. The conditions noted are these: dose 10-50 mg/kg.
Sequence of Phospholipid hydroperoxide glutathione peroxidase GPX4 (Mus musculus) (O70325 whole entry): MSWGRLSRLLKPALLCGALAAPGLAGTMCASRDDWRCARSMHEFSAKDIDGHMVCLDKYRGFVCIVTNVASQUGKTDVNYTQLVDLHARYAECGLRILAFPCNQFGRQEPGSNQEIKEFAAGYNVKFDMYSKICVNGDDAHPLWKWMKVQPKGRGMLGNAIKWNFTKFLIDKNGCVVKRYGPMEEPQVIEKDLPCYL

Experiment [15] concerns HT-22. The experiment can be described thus: Cytoprotective activity against OGD/R induced mouse HT-22 cells assessed as increase in cell viability at 10 uM measured after 24 hrs by MTT assay. The class given is functional, cell-based.
The subject of experiment [16] is HT-22. As to the kind of experiment: Antioxidant activity against OGD/R induced oxidative stress in mouse HT-22 cells assessed as reduction in ROS release level at 1 to 10 uM by DCFH-DA staining based flow cytometry analysis. The class given is functional, cell-based. Particulars: dose 1-10 µM.
Experiment [17] is filed under the species Mus musculus. As to the kind of experiment: Antiinflammatory activity in MCAO-R induced 12 hrs fasted male C57BL/6J mouse model assessed as reduction in IL-18 level by ELISA method. Format: functional, organism-based.
The test system of experiment [18] is HT-22. The experiment can be described thus: Antioxidant activity against OGD/R induced oxidative stress in mouse HT-22 cells assessed as reduction in ROS release level at 10 uM in presence of ML385by DCFH-DA staining based flow cytometry analysis. The class given is functional, cell-based. (Flow cytometry measures light scatter and fluorescence of single cells or particles in a stream.)

The test system of experiment [19] is Mus musculus. The experiment can be described thus: Neuroprotective activity against MCAO-R induced 12 hrs fasted male C57BL/6J mouse model assessed as reduction in infarct volume at 25 mg/kg, ip for 7 days by TTC staining based analysis. The class given is functional, organism-based. Particulars: time 7.0 day.
For experiment [20], the system named is HT-22. The experiment can be described thus: Antioxidant activity against OGD/R induced damage in mouse HT-22 cells assessed as decrease in proportion of mitochondrial depolarized cells by JC-1 fluorescence based flow cytometry analysis. Particulars: dose 1-10 µM. The class given is functional, cell-based.

For the compound `Cc1ccc(C(=O)NCCc2c[nH]c3ccc(N(C)C)cc23)c(O)c1`, the result in experiment [1], in experiment [4], in experiment [7], in experiment [8], in experiment [9] and in [12] was Active. Also, the outcome in [13], in experiment [14], in experiment [15], in experiment [16], in experiment [17] and in experiment [19] was Active. The Activity entry in experiment [2], in experiment [3], in experiment [5], in experiment [11] and in experiment [20] was “Dose-Dependent Effect” in each case. Also, the outcome in [6], in experiment [10] and in experiment [18] was inactive.

Values taken from ChEMBL document CHEMBL5614422, “Design, synthesis and biological evaluation of N-salicyloyl tryptamine derivatives as multifunctional neuroprotectants for the treatment of ischemic stroke” (Eur J Med Chem, 2024).
